Test results from patent US9179694B2, “Method and composition for enhancing milk production and milk component concentrations” (PURINA ANIMAL NUTRITION LLC, priority 2003, dated 2015).

Assay: Milk production (as is basis) in sorbitol feeding trials
Format: in vivo, Holstein cows
Description: Each cow of each of the six different trials (Control Trial #1, Control Trial #2, Pre-Partum Trial #1, Pre-Partum Trial #2, Pre/Post Trial #1, and Pre/Post Trial #2) was milked three times daily and the weight of produced milk by each cow was recorded at each milking. The milk from each cow was sampled once per week (⅓ of the sample volume from each of the three milkings occurring on the weekly milk sampling day) and was analyzed for true protein, total fat, lactose, and total solids, as detailed in the property determination and characterization techniques presented above. Additionally, samples of blood were periodically obtained from each cow during the four trials (Control Trial 2, Pre-Partum Trial #2, Pre/Post Trial #1, and Pre/Post Trial #2) encompassed in Example Two and were analyzed for non-esterified fatty acid (NEFA) content as detailed in the property determination and characterization techniques presented above. No NEFA analysis was conducted on the cows employed in Control Trial #1 or Pre-Partum Trial #1 that are the subject of Example One. Example One includes Control Trial #1 and Pre-Partum Trial #1. Both primiparious cows and multiparious cows were included in Control Trial #1 and Pre-Partum Trial #1. Five primiparious cows and fifteen multiparious cows were included in Control Trial #1; likewise, five primiparious cows and fifteen multiparious cows were included in Pre-Partum Trial #1. All cows included in Control Trial #1 and Pre-Partum Trial #1 were Holsteins. Example Two includes Control Trial #2, Pre-Partum Trial #2, Pre/Post Trial #1, and Pre/Post Trial #2. Only multiparious, Holstein cows were included in Control Trial #2, Pre-Partum Trial #1, Pre/Post Trial #1, and Pre/Post Trial #2. Eighteen multiparious cows were included in both Control Trial #2 and Pre-Partum Trial #2, while sixteen multiparious cows were included in Pre/Post Trial #1 and seventeen multiparious cows were included in Pre/Post Trial #2.

For `OC[C@@H](O)[C@@H](O)[C@H](O)[C@@H](O)CO` [sorbitol], the “Milk Production (As Is Basis)” value (Pre-Partum Trial #1 (75/0/0 g/day in wk −3..−1/+1..+4/+5..+8), multiparious cows, weeks +1 through +8) was 99.9 lbs/day, the “Milk Production (As Is Basis)” value (Pre-Partum Trial #1 (75/0/0 g/day in wk −3..−1/+1..+4/+5..+8), primiparious cows, weeks +1 through +8) was 71.7 lbs/day and the “increase in milk production” value (Pre-Partum Trial #1 (75 g/day wk −3..−1 only) versus Control Trial #1, multiparious cows, weeks +1 through +8) was 9.2%. The “Milk Production (As Is Basis)” value (Pre-Partum Trial #2 (75/0/100 g/day in wk −3..−1/+1..+4/+5..+8), multiparious cows, week +1) was 62.8 lbs/day, the “Milk Production (As Is Basis)” value (Pre-Partum Trial #2 (75/0/100 g/day in wk −3..−1/+1..+4/+5..+8), multiparious cows, week +2) was 92.6 lbs/day and the “Milk Production (As Is Basis)” value (Pre-Partum Trial #2 (75/0/100 g/day in wk −3..−1/+1..+4/+5..+8), multiparious cows, week +3) was 102 lbs/day. For the same compound, the “Milk Production (As Is Basis)” value (Pre-Partum Trial #2 (75/0/100 g/day in wk −3..−1/+1..+4/+5..+8), multiparious cows, week +4) was 111 lbs/day, the “Milk Production (As Is Basis)” value (Pre-Partum Trial #2 (75/0/100 g/day in wk −3..−1/+1..+4/+5..+8), multiparious cows, week +5) was 115 lbs/day and the “Milk Production (As Is Basis)” value (Pre-Partum Trial #2 (75/0/100 g/day in wk −3..−1/+1..+4/+5..+8), multiparious cows, week +6) was 115 lbs/day. For the same compound, the “Milk Production (As Is Basis)” value (Pre-Partum Trial #2 (75/0/100 g/day in wk −3..−1/+1..+4/+5..+8), multiparious cows, week +7) was 115 lbs/day, the “Milk Production (As Is Basis)” value (Pre-Partum Trial #2 (75/0/100 g/day in wk −3..−1/+1..+4/+5..+8), multiparious cows, week +8) was 111 lbs/day and the “Milk Production (As Is Basis)” value (Pre-Partum Trial #2 (75/0/100 g/day in wk −3..−1/+1..+4/+5..+8), multiparious cows, weeks +1 through +4) was 92.0 lbs/day. For the same compound, the “Milk Production (As Is Basis)” value (Pre-Partum Trial #2 (75/0/100 g/day in wk −3..−1/+1..+4/+5..+8), multiparious cows, weeks +1 through +8) was 103 lbs/day, the “Milk Production (As Is Basis)” value (Pre-Partum Trial #2 (75/0/100 g/day in wk −3..−1/+1..+4/+5..+8), multiparious cows, weeks +5 through +8) was 115 lbs/day and the “Milk Production (As Is Basis)” value (Pre/Post Trial #1 (150/125/100 g/day in wk −3..−1/+1..+4/+5..+8), multiparious cows, week +1) was 67.9 lbs/day. The “Milk Production (As Is Basis)” value (Pre/Post Trial #1 (150/125/100 g/day in wk −3..−1/+1..+4/+5..+8), multiparious cows, week +1, two-trial comparison with Control Trial #2 (Table 23)) was 68.4 lbs/day, the “Milk Production (As Is Basis)” value (Pre/Post Trial #1 (150/125/100 g/day in wk −3..−1/+1..+4/+5..+8), multiparious cows, week +2) was 93.8 lbs/day and the “Milk Production (As Is Basis)” value (Pre/Post Trial #1 (150/125/100 g/day in wk −3..−1/+1..+4/+5..+8), multiparious cows, week +2, two-trial comparison with Control Trial #2 (Table 23)) was 93.9 lbs/day. For the same compound, the “Milk Production (As Is Basis)” value (Pre/Post Trial #1 (150/125/100 g/day in wk −3..−1/+1..+4/+5..+8), multiparious cows, week +3) was 104 lbs/day, the “Milk Production (As Is Basis)” value (Pre/Post Trial #1 (150/125/100 g/day in wk −3..−1/+1..+4/+5..+8), multiparious cows, week +3, two-trial comparison with Control Trial #2 (Table 23)) was 104 lbs/day and the “Milk Production (As Is Basis)” value (Pre/Post Trial #1 (150/125/100 g/day in wk −3..−1/+1..+4/+5..+8), multiparious cows, week +4) was 109 lbs/day. The “Milk Production (As Is Basis)” value (Pre/Post Trial #1 (150/125/100 g/day in wk −3..−1/+1..+4/+5..+8), multiparious cows, week +4, two-trial comparison with Control Trial #2 (Table 23)) was 109 lbs/day, the “Milk Production (As Is Basis)” value (Pre/Post Trial #1 (150/125/100 g/day in wk −3..−1/+1..+4/+5..+8), multiparious cows, week +5) was 113 lbs/day and the “Milk Production (As Is Basis)” value (Pre/Post Trial #1 (150/125/100 g/day in wk −3..−1/+1..+4/+5..+8), multiparious cows, week +5, two-trial comparison with Control Trial #2 (Table 23)) was 113 lbs/day. For the same compound, the “Milk Production (As Is Basis)” value (Pre/Post Trial #1 (150/125/100 g/day in wk −3..−1/+1..+4/+5..+8), multiparious cows, week +6) was 113 lbs/day, the “Milk Production (As Is Basis)” value (Pre/Post Trial #1 (150/125/100 g/day in wk −3..−1/+1..+4/+5..+8), multiparious cows, week +6, two-trial comparison with Control Trial #2 (Table 23)) was 113 lbs/day and the “Milk Production (As Is Basis)” value (Pre/Post Trial #1 (150/125/100 g/day in wk −3..−1/+1..+4/+5..+8), multiparious cows, week +7) was 112 lbs/day. The “Milk Production (As Is Basis)” value (Pre/Post Trial #1 (150/125/100 g/day in wk −3..−1/+1..+4/+5..+8), multiparious cows, week +7, two-trial comparison with Control Trial #2 (Table 23)) was 112 lbs/day, the “Milk Production (As Is Basis)” value (Pre/Post Trial #1 (150/125/100 g/day in wk −3..−1/+1..+4/+5..+8), multiparious cows, week +8) was 114 lbs/day and the “Milk Production (As Is Basis)” value (Pre/Post Trial #1 (150/125/100 g/day in wk −3..−1/+1..+4/+5..+8), multiparious cows, week +8, two-trial comparison with Control Trial #2 (Table 23)) was 115 lbs/day. The “Milk Production (As Is Basis)” value (Pre/Post Trial #1 (150/125/100 g/day in wk −3..−1/+1..+4/+5..+8), multiparious cows, weeks +1 through +4) was 93.6 lbs/day, the “Milk Production (As Is Basis)” value (Pre/Post Trial #1 (150/125/100 g/day in wk −3..−1/+1..+4/+5..+8), multiparious cows, weeks +1 through +4, two-trial comparison with Control Trial #2 (Table 23)) was 94.1 lbs/day and the “Milk Production (As Is Basis)” value (Pre/Post Trial #1 (150/125/100 g/day in wk −3..−1/+1..+4/+5..+8), multiparious cows, weeks +1 through +8) was 103 lbs/day. The “Milk Production (As Is Basis)” value (Pre/Post Trial #1 (150/125/100 g/day in wk −3..−1/+1..+4/+5..+8), multiparious cows, weeks +1 through +8, two-trial comparison with Control Trial #2 (Table 23)) was 104 lbs/day, the “Milk Production (As Is Basis)” value (Pre/Post Trial #1 (150/125/100 g/day in wk −3..−1/+1..+4/+5..+8), multiparious cows, weeks +5 through +8) was 113 lbs/day and the “Milk Production (As Is Basis)” value (Pre/Post Trial #1 (150/125/100 g/day in wk −3..−1/+1..+4/+5..+8), multiparious cows, weeks +5 through +8, two-trial comparison with Control Trial #2 (Table 23)) was 113 lbs/day. For the same compound, the “Milk Production (As Is Basis)” value (Pre/Post Trial #2 (75/75/100 g/day in wk −3..−1/+1..+4/+5..+8), multiparious cows, week +1) was 66.4 lbs/day, the “Milk Production (As Is Basis)” value (Pre/Post Trial #2 (75/75/100 g/day in wk −3..−1/+1..+4/+5..+8), multiparious cows, week +2) was 92.8 lbs/day and the “Milk Production (As Is Basis)” value (Pre/Post Trial #2 (75/75/100 g/day in wk −3..−1/+1..+4/+5..+8), multiparious cows, week +3) was 102 lbs/day. For the same compound, the “Milk Production (As Is Basis)” value (Pre/Post Trial #2 (75/75/100 g/day in wk −3..−1/+1..+4/+5..+8), multiparious cows, week +4) was 108 lbs/day, the “Milk Production (As Is Basis)” value (Pre/Post Trial #2 (75/75/100 g/day in wk −3..−1/+1..+4/+5..+8), multiparious cows, week +5) was 113 lbs/day and the “Milk Production (As Is Basis)” value (Pre/Post Trial #2 (75/75/100 g/day in wk −3..−1/+1..+4/+5..+8), multiparious cows, week +6) was 113 lbs/day. The “Milk Production (As Is Basis)” value (Pre/Post Trial #2 (75/75/100 g/day in wk −3..−1/+1..+4/+5..+8), multiparious cows, week +7) was 110 lbs/day, the “Milk Production (As Is Basis)” value (Pre/Post Trial #2 (75/75/100 g/day in wk −3..−1/+1..+4/+5..+8), multiparious cows, week +8) was 108 lbs/day and the “Milk Production (As Is Basis)” value (Pre/Post Trial #2 (75/75/100 g/day in wk −3..−1/+1..+4/+5..+8), multiparious cows, weeks +1 through +4) was 91.7 lbs/day. The “Milk Production (As Is Basis)” value (Pre/Post Trial #2 (75/75/100 g/day in wk −3..−1/+1..+4/+5..+8), multiparious cows, weeks +1 through +8) was 102 lbs/day and the “Milk Production (As Is Basis)” value (Pre/Post Trial #2 (75/75/100 g/day in wk −3..−1/+1..+4/+5..+8), multiparious cows, weeks +5 through +8) was 111 lbs/day.
